Data on three compounds can be found in PubChem BioAssay (NCI).

The structures appear in SMILES notation.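 96-well plates; 48 h exposure; 5 concentrations. Endpoints by linear interpolation between flanking doses. Not reached: highest tested concentration assigned. The concentration for full growth arrest is given as TGI.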

Test systems include SN12C renal; SNB-19 CNS; UACC-257 melanoma; OVCAR-3 ovarian; NCI-H460 lung; NCI-H23 lung; RXF 393 renal; OVCAR-5 ovarian; ACHN renal; HL-60(TB) leukemia; NCI-H226 lung; SF-268 CNS; CCRF-CEM leukemia; HT29 colon; CAKI-1 renal; OVCAR-4 ovarian; EKVX NSCLC; M14 melanoma; MALME-3M melanoma; HCT-116 colon.
What all share (test): NCI anticancer screen, dose series, 48 h

Turning to `CC1(C)N=C(/C(Cl)=[N+](/[O-])C(=O)c2ccc(Cl)cc2)C(C)(C)N1O`, the TGI in the test with SN12C renal was 47 µM; in the test on SNB-19 CNS it was greater than 100 µM; in the test with UACC-257 melanoma it was 38.1 µM; with OVCAR-3 ovarian it was 32.4 µM; in the test on NCI-H460 lung it was greater than 100 µM; with NCI-H23 lung, 48.6 µM. In addition, the TGI with RXF 393 renal was 38 µM; in the test on OVCAR-5 ovarian, 42.5 µM; in the test on ACHN renal it was greater than 100 µM; in the test on HL-60(TB) leukemia, 60.7 µM; with NCI-H226 lung, 72.6 µM; in the test with SF-268 CNS, 89.2 µM. Also, the TGI is 45.7 µM in the test with CCRF-CEM leukemia; 43 µM in the test on HT29 colon; 42.7 µM in the test with CAKI-1 renal; 68.5 µM with OVCAR-4 ovarian; greater than 100 µM with EKVX NSCLC; 32.1 µM in the test with M14 melanoma. The TGI in the test on MALME-3M melanoma stood at 35.9 µM; with HCT-116 colon, 32.5 µM.
In the case of `Cc1ccc(NC(=O)CC/C(CC(=O)C(C)(C)C)=N/NC(=O)c2cc3ccccc3cc2O)cc1C`, the TGI was greater than 100 µM in the test with SN12C renal; greater than 100 µM in the test with SNB-19 CNS; greater than 100 µM in the test with UACC-257 melanoma; greater than 100 µM with OVCAR-3 ovarian; greater than 100 µM in the test on NCI-H460 lung; 47.6 µM with NCI-H23 lung. Further, the TGI in the test with RXF 393 renal, in the test on OVCAR-5 ovarian, in the test with ACHN renal, with HL-60(TB) leukemia, in the test with NCI-H226 lung and in the test with SF-268 CNS was greater than 100 µM each time. For the same compound, the TGI in the test with CCRF-CEM leukemia is 70.1 µM; with HT29 colon, greater than 100 µM; in the test with CAKI-1 renal it was greater than 100 µM; in the test on OVCAR-4 ovarian, greater than 100 µM; with EKVX NSCLC, greater than 100 µM; in the test on M14 melanoma, 96 µM. The TGI in the test on MALME-3M melanoma and with HCT-116 colon was greater than 100 µM in each case.
`CCC12CCC[C@@]13C=C[C@H](O3)C(C)(C)C2=O` (stereo not given in full): the TGI in the test with SN12C renal, in the test on SNB-19 CNS, in the test on UACC-257 melanoma, in the test with OVCAR-3 ovarian, in the test with NCI-H460 lung and in the test on NCI-H23 lung was greater than 100 µM each time. The TGI in the test on RXF 393 renal, with OVCAR-5 ovarian, in the test with ACHN renal, in the test with HL-60(TB) leukemia, in the test on NCI-H226 lung and in the test on SF-268 CNS was greater than 100 µM each time. The TGI in the test with CCRF-CEM leukemia, in the test with HT29 colon, with CAKI-1 renal, in the test on OVCAR-4 ovarian, in the test on EKVX NSCLC and in the test on M14 melanoma was greater than 100 µM each time. Besides, the TGI with MALME-3M melanoma and in the test on HCT-116 colon was greater than 100 µM throughout.
